In test [1] the test system is C. difficile clinical isolates. Description: MIC against a panel of 20 C. difficile clinical isolates (broth microdilution). Particulars: Clostridioides difficile; for MIC50: concentration that inhibited 50% of the 20 C. difficile clinical isolates, read-out: MIC50; for MIC: read-out: minimum inhibitory concentration (MIC); for MIC90: concentration that inhibited 90% of the 20 C. difficile clinical isolates, read-out: MIC90. Type of test: cell-based, Clostridioides difficile.

The test system of the next test is B. fragilis. Description: MIC against human gut microbiota. Type of test: cell-based, Bacteroides fragilis. To be noted: Bacteroides fragilis, anaerobic, read-out: minimum inhibitory concentration (MIC).
For the next test, the system named is B. dorei. Description: MIC against human gut microbiota. In kind it is cell-based, Bacteroides dorei. Particulars: Phocaeicola dorei; B. dorei HM- 719, BHIS broth, anaerobic; read-out: minimum inhibitory concentration (MIC).
A further test concerns Bif. breve. Description: MIC against human gut microbiota. Type of test: cell-based, Bifidobacterium breve. Particulars: Bifidobacterium breve, ATCC15700; Bif. breve ATCC 15700, BHIS broth, anaerobic; read-out: minimum inhibitory concentration (MIC).
A further test relates to Bif. angulatum. Description: MIC against human gut microbiota. In kind it is cell-based, Bifidobacterium angulatum. To be noted: Bifidobacterium angulatum; Bif. angulatum HM- 1189, BHIS broth, anaerobic; read-out: minimum inhibitory concentration (MIC).
The test system of the next test is Bif. adolescentis. Description: MIC against human gut microbiota. In kind it is cell-based, Bifidobacterium adolescentis. To be noted: Bifidobacterium adolescentis; Bif. adolescentis HM- 633, BHIS broth, anaerobic; read-out: minimum inhibitory concentration (MIC).
In a further test the test system is Bif. longum. Description: MIC against human gut microbiota. In kind it is cell-based, Bifidobacterium longum. Particulars: Bifidobacterium longum, anaerobic, read-out: minimum inhibitory concentration (MIC).
The next test concerns E. faecium. Description: MIC against human gut microbiota. Particulars: Enterococcus faecium; E. faecium HM-202, TSB, aerobic; read-out: minimum inhibitory concentration (MIC). In kind it is cell-based, Enterococcus faecium.
The next test deals with E. fecalis. Description: MIC against human gut microbiota. To be noted: Enterococcus faecalis; E. fecalis HM-970, TSB, aerobic; read-out: minimum inhibitory concentration (MIC). In kind it is cell-based, Enterococcus faecalis.
The next test concerns L. casei. Description: MIC against human gut microbiota. In kind it is cell-based. To be noted: Lacticaseibacillus casei, ATCC334; L. casei ATCC 334, MRS broth, 5% CO2; read-out: minimum inhibitory concentration (MIC).
Another test deals with L. brevis. Description: MIC against human gut microbiota. Type of test: cell-based, Lactobacillus brevis. To be noted: Levilactobacillus brevis, ATCC14864; L. brevis ATCC-14864, MRS broth, 5% CO2; read-out: minimum inhibitory concentration (MIC).
The subject of another test is L. rhamanosus. Description: MIC against human gut microbiota. Type of test: cell-based, Lactobacillus rhamnoosus. To be noted: Lactobacillus, ATCC53103; L. rhamanosus ATCC-53103, MRS broth, 5% CO2; read-out: minimum inhibitory concentration (MIC).
The subject of test [2] is C. difficile ATCC BAA-1870. Description: Time-kill assay at 5 × MIC. To be noted: C. difficile ATCC BAA-1870, ~10^6 CFU/mL, up to 24 h.
Test [3] concerns C. difficile ATCC BAA-1870. Description: MIC of active hits by broth microdilution. To be noted: C. difficile ATCC BAA-1870, 48 h anaerobic; for MIC: Clostridioides difficile, ATCCBAA1870, 48 h.
The mark [4] stands for this setting: ATCC43255, C. difficile ATCC 43255.
Setting [5] is: ATCCBAA1870, C. difficile ATCC BAA-1870 (Ribotype-027), purchased compounds, panel test.
Setting [6] is: C. difficile CD-1 (Ribotype-027).
The mark [7] stands for this setting: C. difficile CD-6 (Ribotype-027).
Setting [8] is: C. difficile CD-10(Ribotype-027).
Where [9] appears, read: C. difficile CD-26 (Ribotype-027).
Setting [10] is: C. difficile CD-29 (Ribotype-027).
Where [11] appears, read: B. fragilis HM- 709, BHIS broth.
[12] abbreviates: B. fragilis HM- 718, BHIS broth.
[13] abbreviates: Bif. longum HM- 845, BHIS broth.
The mark [14] stands for this setting: Bif. longum HM- 846, BHIS broth.
The mark [15] stands for this setting: Bif. longum HM- 847, BHIS broth.
The mark [16] stands for this setting: Bif. longum HM- 848, BHIS broth.

Data on six molecules can be found in publication PMC11288027, “Exploring novel microbial metabolites and drugs for inhibiting Clostridioides difficile” (mSphere, 2024).

Converted amounts (≈) assume the structure as drawn. “And” between values parts separate entries of the source, which are not always exact repeats. Equal values may be shown once. Read-outs that look alike come from different tables or passages of the source.

`CCc1c(Cl)c(O)c(Cl)c(O)c1C(=O)O[C@H]1[C@H](O)[C@H](OC)[C@H](OC/C2=C\C=C\C[C@H](O)/C(C)=C/[C@H](CC)[C@@H](O[C@@H]3OC(C)(C)[C@@H](OC(=O)C(C)C)[C@H](O)[C@@H]3O)/C(C)=C/C(C)=C/C[C@@H]([C@@H](C)O)OC2=O)O[C@@H]1C` [Fidaxomicin]: the MIC50 in [1] (48 h) and in test [1] was 0.015 µg/mL (≈ 0.0142 µM) in each case. Also, the MIC in test [1] (ATCC630, C. difficile ATCC 630) is not above 0.0078 µg/mL; in [1] (setting [4]), 0.03 µg/mL (≈ 0.0284 µM); in [1] (setting [5]), not above 0.0078 µg/mL; in test [1] (setting [6]), 0.06 µg/mL (≈ 0.0567 µM); in test [1] (setting [7]), 0.06 µg/mL (≈ 0.0567 µM); in [1] (setting [8]), 0.03 µg/mL (≈ 0.0284 µM). Moreover, the MIC in test [1] (C. difficile CD-12) is 0.03 µg/mL (≈ 0.0284 µM); in test [1] (C. difficile CD-13) it was not above 0.0078 µg/mL; in test [1] (C. difficile CD-15) it was 0.015 µg/mL (≈ 0.0142 µM); in test [1] (C. difficile CD-22), not above 0.0078 µg/mL; in test [1] (C. difficile CD-23), 0.06 µg/mL (≈ 0.0567 µM); in [1] (C. difficile CD-24) it was not above 0.0078 µg/mL. Besides, the MIC in test [1] (setting [9]) is 0.06 µg/mL (≈ 0.0567 µM); in test [1] (C. difficile CD-28) it was 0.015 µg/mL (≈ 0.0142 µM); in [1] (setting [10]) it was not above 0.0078 µg/mL; in test [1] (C. difficile CD-30), 0.015 µg/mL (≈ 0.0142 µM); in test [1] (C. difficile NR-49302), 0.03 µg/mL (≈ 0.0284 µM); in [1] (C. difficile NR-49304) it was not above 0.0078 µg/mL. Also, the MIC in test [1] (C. difficile NR-49308) is not above 0.0078 µg/mL; in test [1] (C. difficile NR-49319) it was 0.03 µg/mL (≈ 0.0284 µM); in the test with B. fragilis (setting [11]) it was more than 256 µg/mL; in the test on B. fragilis (setting [12]) it was more than 256 µg/mL; in the test with B. dorei, more than 256 µg/mL; in the test on Bif. breve it was not above 2 µg/mL. In addition, the MIC with Bif. angulatum, with Bif. adolescentis, with Bif. longum (setting [13]), with Bif. longum (setting [14]), with Bif. longum (setting [15]) and with Bif. longum (setting [16]) was not above 2 µg/mL in each case. Further, the MIC in the test with E. faecium was not above 2 µg/mL; in the test on E. fecalis, not above 2 µg/mL; in the test with L. casei, 8 µg/mL (≈ 7.56 µM); with L. brevis, 64 µg/mL (≈ 60.5 µM); in the test with L. rhamanosus it was 8 µg/mL (≈ 7.56 µM); in test [3], not above 0.0078 µg/mL. In test [1], the MIC90 was 0.06 µg/mL (≈ 0.0567 µM). In addition, the “time to eliminate / clear C. difficile” value in test [2] is reported as not above 24 h.

Consider `Cc1ccc2c(Cl)cc(Cl)c(O)c2n1` [Chlorquinaldol], for which the MIC50 in test [1] (48 h) and in test [1] was 0.125 µg/mL (≈ 0.548 µM) each time. Moreover, the MIC amounted to 0.25 µg/mL (≈ 1.1 µM) in test [1] (ATCC630, C. difficile ATCC 630); 0.06 µg/mL (≈ 0.263 µM) in test [1] (setting [4]); 0.125 µg/mL (≈ 0.548 µM) in test [1] (setting [5]); 0.125 µg/mL (≈ 0.548 µM) in [1] (setting [6]); 0.125 µg/mL (≈ 0.548 µM) in test [1] (setting [7]); 0.125 µg/mL (≈ 0.548 µM) in [1] (setting [8]). Besides, the MIC in test [1] (C. difficile CD-12) worked out at 0.25 µg/mL (≈ 1.1 µM); in [1] (C. difficile CD-13), 0.25 µg/mL (≈ 1.1 µM); in test [1] (C. difficile CD-15) it was 0.125 µg/mL (≈ 0.548 µM); in test [1] (C. difficile CD-22) it was 0.125 µg/mL (≈ 0.548 µM); in test [1] (C. difficile CD-23) it was 0.125 µg/mL (≈ 0.548 µM); in test [1] (C. difficile CD-24) it was 0.06 µg/mL (≈ 0.263 µM). Further, the MIC in test [1] (setting [9]) is 0.125 µg/mL (≈ 0.548 µM); in test [1] (C. difficile CD-28), 0.125 µg/mL (≈ 0.548 µM); in test [1] (setting [10]), 0.06 µg/mL (≈ 0.263 µM); in test [1] (C. difficile CD-30), 0.5 µg/mL (≈ 2.19 µM); in test [1] (C. difficile NR-49302) it was 0.125 µg/mL (≈ 0.548 µM); in test [1] (C. difficile NR-49304), 0.06 µg/mL (≈ 0.263 µM). Also, the MIC was 0.06 µg/mL (≈ 0.263 µM) in test [1] (C. difficile NR-49308); 0.06 µg/mL (≈ 0.263 µM) in [1] (C. difficile NR-49319); not above 2 µg/mL in the test on B. fragilis (setting [11]); not above 2 µg/mL in the test with B. fragilis (setting [12]); not above 2 µg/mL in the test with B. dorei; more than 256 µg/mL in the test with Bif. breve. Further, the MIC in the test on Bif. angulatum worked out at 32 µg/mL (≈ 140 µM); in the test on Bif. adolescentis, 32 µg/mL (≈ 140 µM); in the test on Bif. longum (setting [13]), 128 µg/mL (≈ 561 µM); in the test on Bif. longum (setting [14]), 32 µg/mL (≈ 140 µM); in the test on Bif. longum (setting [15]) it was 64 µg/mL (≈ 281 µM); in the test with Bif. longum (setting [16]), 64 µg/mL (≈ 281 µM). Besides, the MIC in the test with E. faecium was more than 256 µg/mL; in the test with E. fecalis, 128 µg/mL (≈ 561 µM); with L. casei, more than 256 µg/mL; with L. brevis it was more than 256 µg/mL; with L. rhamanosus it was more than 256 µg/mL; in test [3] it was 0.91 µg/mL. Moreover, the MIC90 in test [1] turned out to be 0.25 µg/mL (≈ 1.1 µM). In addition, the “MIC (μM)” value in [3] was 2 µM.

Turning to Avermectin B1, in [3], the “MIC (μM)” value is 16 µM and the “MIC (μg/mL)” value amounted to 27.71 µg/mL.

In the case of Ivermectin, in [3], the “MIC (μM)” value worked out at 16 µM and the “MIC (μg/mL)” value is 14 µg/mL.

In the case of `CC(C)=CCC[C@](C)(O[C@@H]1O[C@H](CO)[C@@H](O)[C@H](O)[C@H]1O)[C@H]1CC[C@]2(C)[C@@H]1[C@H](O)C[C@@H]1[C@@]3(C)CC[C@H](O)C(C)(C)[C@@H]3CC[C@]12C` [Ginsenoside C-K], the MIC in [3] was 16 µM and 9.97 µg/mL.

As to `Cc1cc(SCc2sc(-c3ccc(C(F)(F)F)cc3)nc2C)ccc1OCC(=O)O` [GW 501516], in test [3], the MIC was 16 µM and 14.5 µg/mL.
